This is an account of results in ChEMBL document CHEMBL1201862, “PubChem BioAssay data set” (2004).

The source made the active and inactive calls.

The nature of test [1]: control 3'UTR Renilla luciferase suppression, dose response, counter-screen for Shn3 inhibitor project, cell-based, Clone20-Shn3RL, cherry-picked (AID 624133). The test is classed as functional.
A further test concerns the target Mu-type opioid receptor (Homo sapiens, UniProt P35372). The test is described as follows: HTS Image-Based Screen for Agonists of the MOR Receptor. [Related pubchem assays (depositor defined):AID1777, AID1785, AID1786, AID2133]. The test is classed as functional.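 Further: imaging of beta-arrestin GFP recruitment into spots after receptor activation.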
Test [2] can be described thus: cytotoxicity in MIN6 insulinoma cells, dose response, cytotoxicity control, cell-based, mouse insulinoma (AID 2122).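 Further: confirmatory high-throughput counterscreen run to flag cytotoxic compounds; mouse MIN-6 beta cells carrying an insulin promoter eGFP reporter.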 Format: functional.
Test [3] in a line: HepG2 cell cytotoxicity, dose response, cytotoxicity control for Shn3 inhibitor project, CellTiter-Glo, cherry-picked (AID 624134). Format: functional, cell-based. Background: Cellular ATP, detected with luciferase, serves as a proxy for viable cell number.
In the next test the test system is INS1. The test is described as follows: beta cell apoptosis inhibitors, cytokine rescue, dose response, luminescence, retest (AID 449756).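 Further: cell death triggered by IL-1 beta plus TNF-alpha plus IFN-gamma mixture; protective hits raise ATP signal compared with cytokine alone wells.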 Format: functional, cell-based. The settings on record: Rattus norvegicus.
Test [4] addresses T1, Kappa-type opioid receptor (Homo sapiens, UniProt P41145). The test is classed as functional.
A short description of test [5]: Shn3 3'UTR reporter inhibitors, dose response, cell-based, Clone20 osteoblasts, firefly luciferase, cherry-picked (AID 624132).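 Further: firefly luciferase luminescence from reporter carrying the Shn3 3'UTR in osteoblasts.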 Format: functional.
In test [6] the target is T1, Kappa-type opioid receptor. The test is classed as functional. This is another data set of the same source.
The subject of another test is Streptococcus. The test is described as follows: Group A Streptococcus viability loss, dose response, counter-screen for streptokinase expression inhibitor project, luminescence, BacTiterGlo (AID 1915).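 Further: potency for reduction of bacterial viability or growth.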 The test is classed as functional, organism-based. On the technique in general: A counterscreen serves to expose hits that act by an unwanted route or on another target.

Test [7] deals with T2, Delta-type opioid receptor (Homo sapiens, UniProt P41143). The test is described as follows: HTS Image-Based Screen for Agonists of the DOR Receptor. [Related pubchem assays (depositor defined):AID1777, AID1786, AID2133]. Format: functional.
Test [8] deals with T2, Delta-type opioid receptor. The test is described as follows: HTS Image-Based Screen for Antagonists of the DOR Receptor. [Related pubchem assays (depositor defined):AID1777, AID1785, AID1786, AID2133]. Format: functional.
The subject of test [9] is Streptococcus sp. 'group A'. The test is described as follows: growth inhibition of control SK(-) GAS strain, dose response, counter-screen for streptokinase expression inhibitor project, luminescence, kanamycin, BacTiterGlo, confirmation (AID 1900). Format: functional, organism-based.
Test [10] is described as follows: M. tuberculosis H37Rv growth inhibitors, H37Rv strain (AID 1626). The test is classed as functional.
Test [11] is described as follows: insulin promoter down-regulators in MIN6 cells, imaging, high-content screening, mouse beta cells (AID 1628). The test is classed as functional.
In the next test the target is Beta-galactosidase (Escherichia coli, UniProt Q8VNN2). Format: functional.
In test [12] the target is T3, Tyrosine-protein phosphatase non-receptor type 22 (Homo sapiens, UniProt Q9Y2R2).
T3 sequence (Q9Y2R2 whole entry): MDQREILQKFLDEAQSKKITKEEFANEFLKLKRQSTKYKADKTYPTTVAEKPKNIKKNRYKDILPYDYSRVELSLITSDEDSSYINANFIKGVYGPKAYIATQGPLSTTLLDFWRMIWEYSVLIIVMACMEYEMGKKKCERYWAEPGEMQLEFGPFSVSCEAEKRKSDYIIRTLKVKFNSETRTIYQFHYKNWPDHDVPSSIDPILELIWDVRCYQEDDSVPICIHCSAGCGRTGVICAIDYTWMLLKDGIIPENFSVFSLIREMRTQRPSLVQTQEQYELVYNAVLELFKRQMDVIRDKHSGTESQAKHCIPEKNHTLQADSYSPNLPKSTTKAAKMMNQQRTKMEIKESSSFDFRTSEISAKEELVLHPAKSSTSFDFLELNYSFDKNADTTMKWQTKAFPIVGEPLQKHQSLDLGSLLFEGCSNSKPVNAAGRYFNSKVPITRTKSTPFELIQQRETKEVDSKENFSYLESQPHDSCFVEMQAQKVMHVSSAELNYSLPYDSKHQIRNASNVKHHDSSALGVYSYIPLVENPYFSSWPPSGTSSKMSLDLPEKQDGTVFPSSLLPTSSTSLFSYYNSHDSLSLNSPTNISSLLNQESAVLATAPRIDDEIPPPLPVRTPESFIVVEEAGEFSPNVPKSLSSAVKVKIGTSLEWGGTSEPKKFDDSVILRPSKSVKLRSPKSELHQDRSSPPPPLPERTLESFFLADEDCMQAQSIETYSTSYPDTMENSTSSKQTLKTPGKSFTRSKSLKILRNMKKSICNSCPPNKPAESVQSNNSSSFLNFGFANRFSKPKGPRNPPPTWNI
Format: functional.

The target of test [13] is T3, Tyrosine-protein phosphatase non-receptor type 22. Format: functional. The source holds these as a separate data set.
Test [14] concerns the target T4, Small ubiquitin-related modifier 1 (Homo sapiens, UniProt P63165). The test is described as follows: inhibitors of SUMO1 partner interactions, dose response, biochemical, FRET (AID 624383). Format: functional. Conditions: read-out: IC50_Mean.
Test [15] addresses T5, Tyrosine-protein phosphatase non-receptor type 7 (Homo sapiens, UniProt P35236).
T5 sequence (P35236 whole entry): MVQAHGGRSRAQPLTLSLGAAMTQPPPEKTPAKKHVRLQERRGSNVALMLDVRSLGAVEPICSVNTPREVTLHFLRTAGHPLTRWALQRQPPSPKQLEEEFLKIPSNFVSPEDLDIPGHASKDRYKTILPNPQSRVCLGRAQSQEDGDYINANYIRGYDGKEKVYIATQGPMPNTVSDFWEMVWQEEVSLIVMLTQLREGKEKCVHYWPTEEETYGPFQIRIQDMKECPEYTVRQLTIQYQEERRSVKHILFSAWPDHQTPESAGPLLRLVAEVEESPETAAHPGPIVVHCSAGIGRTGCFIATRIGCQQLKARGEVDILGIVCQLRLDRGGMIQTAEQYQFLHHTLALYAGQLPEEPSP
The test is classed as functional.

Test [16] addresses T4, Small ubiquitin-related modifier 1. The test is described as follows: inhibitors of SUMO1 peptide binding, dose response, biochemical, fluorescence polarization, uHTS hits (AID 624382). Format: functional. The settings on record: read-out: IC50_Mean.
Test [17] has as its target Polyadenylate-binding protein 1 (Homo sapiens, UniProt P11940). The test is described as follows: PABP inhibition in translation initiation, SAR follow-up (AID 435018). Format: functional.
Test [18] concerns the target Eukaryotic translation initiation factor 4H (Homo sapiens, UniProt Q15056). The test is described as follows: eIF4H inhibition in translation initiation, SAR follow-up (AID 435011). Format: functional.
The test system of test [19] is Vero. The test is described as follows: cells. Format: functional. The settings on record: Chlorocebus sabaeus.
Test [20] deals with BJ. The test is described as follows: cells. The settings on record: Homo sapiens. The test is classed as functional, cell-based.
The test system of test [21] is Vero. The test is described as follows: cells. The settings on record: Chlorocebus sabaeus. Format: functional, cell-based.
For test [22], the system named is BJ. The test is described as follows: cytotoxicity toward BJ-TERT-LT-ST fibroblasts, dose response, cell-based, RAS-independent, luminescence (AID 1935).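 Further: BJ fibroblasts immortalized with TERT plus LT and ST oncogenes.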 The test is classed as functional. Conditions: Homo sapiens.
Test [23] deals with Neurotensin receptor type 1 (Homo sapiens, UniProt P30989). Format: functional.
For test [24], the system named is BJ. The test is described as follows: cytotoxicity toward BJ-TERT fibroblasts, dose response, cell-based, RAS-independent, luminescence (AID 1933). The test is classed as functional. Conditions: Homo sapiens.
A short description of test [25]: cytotoxicity toward DRD oncogenic fibroblasts, dose response, cell-based, non-viral oncogenic, luminescence (AID 1934). Format: functional. The settings on record: Homo sapiens.
The next test deals with T6, Hexokinase HKDC1 (Homo sapiens, UniProt Q2TB90).
T6 sequence (Q2TB90 whole entry): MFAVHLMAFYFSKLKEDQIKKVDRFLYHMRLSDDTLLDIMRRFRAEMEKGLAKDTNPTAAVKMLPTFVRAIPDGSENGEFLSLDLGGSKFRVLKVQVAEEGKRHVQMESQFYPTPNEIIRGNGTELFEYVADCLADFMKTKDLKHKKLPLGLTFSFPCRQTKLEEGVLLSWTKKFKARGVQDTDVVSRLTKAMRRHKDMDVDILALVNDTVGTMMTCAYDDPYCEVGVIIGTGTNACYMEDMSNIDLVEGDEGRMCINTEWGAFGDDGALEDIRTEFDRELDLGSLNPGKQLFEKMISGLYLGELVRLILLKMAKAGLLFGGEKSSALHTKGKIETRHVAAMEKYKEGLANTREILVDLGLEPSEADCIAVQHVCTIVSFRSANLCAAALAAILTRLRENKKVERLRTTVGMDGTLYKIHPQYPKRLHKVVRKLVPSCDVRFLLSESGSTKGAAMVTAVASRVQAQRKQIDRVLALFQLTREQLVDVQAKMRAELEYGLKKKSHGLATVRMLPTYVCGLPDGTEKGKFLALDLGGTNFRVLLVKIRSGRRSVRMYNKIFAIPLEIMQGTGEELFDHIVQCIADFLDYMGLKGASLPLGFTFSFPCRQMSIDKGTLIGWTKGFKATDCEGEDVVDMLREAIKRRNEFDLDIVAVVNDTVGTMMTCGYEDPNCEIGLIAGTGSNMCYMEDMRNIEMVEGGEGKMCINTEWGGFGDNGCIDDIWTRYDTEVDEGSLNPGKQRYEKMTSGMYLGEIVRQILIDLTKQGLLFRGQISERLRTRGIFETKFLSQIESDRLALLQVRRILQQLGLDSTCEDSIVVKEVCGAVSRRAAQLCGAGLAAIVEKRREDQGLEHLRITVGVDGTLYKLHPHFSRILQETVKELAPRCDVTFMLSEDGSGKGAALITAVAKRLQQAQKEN
The test is described as follows: HKDC1 hexokinase inhibitors, dose response, biochemical, W721R variant (AID 504729). The test is classed as functional.

Test [26] addresses G-protein coupled receptor 55 (Homo sapiens, UniProt Q9Y2T6). The test is described as follows: GPR55 agonists via beta-arrestin recruitment, primary screen, imaging, U2OS cells, beta-arrestin-GFP redistribution (AID 1961). The test is classed as functional. Background: Activated receptors often draw arrestin, which recruitment assays turn into a signal.

T2 sequence (P41143 whole entry): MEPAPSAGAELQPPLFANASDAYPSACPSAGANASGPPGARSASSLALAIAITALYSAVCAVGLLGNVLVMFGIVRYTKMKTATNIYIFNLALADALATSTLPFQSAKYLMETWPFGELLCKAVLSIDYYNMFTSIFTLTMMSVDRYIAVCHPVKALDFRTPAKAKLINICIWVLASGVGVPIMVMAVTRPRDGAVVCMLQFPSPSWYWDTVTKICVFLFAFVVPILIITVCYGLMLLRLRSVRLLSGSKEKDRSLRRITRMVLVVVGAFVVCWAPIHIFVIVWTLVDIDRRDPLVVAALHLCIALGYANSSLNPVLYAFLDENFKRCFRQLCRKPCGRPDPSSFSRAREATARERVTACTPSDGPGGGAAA
T4 sequence (P63165 whole entry): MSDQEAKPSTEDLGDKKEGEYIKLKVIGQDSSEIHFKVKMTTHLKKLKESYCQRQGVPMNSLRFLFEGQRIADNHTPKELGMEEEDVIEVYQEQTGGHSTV
Chain of Polyadenylate-binding protein 1 (P11940 whole entry): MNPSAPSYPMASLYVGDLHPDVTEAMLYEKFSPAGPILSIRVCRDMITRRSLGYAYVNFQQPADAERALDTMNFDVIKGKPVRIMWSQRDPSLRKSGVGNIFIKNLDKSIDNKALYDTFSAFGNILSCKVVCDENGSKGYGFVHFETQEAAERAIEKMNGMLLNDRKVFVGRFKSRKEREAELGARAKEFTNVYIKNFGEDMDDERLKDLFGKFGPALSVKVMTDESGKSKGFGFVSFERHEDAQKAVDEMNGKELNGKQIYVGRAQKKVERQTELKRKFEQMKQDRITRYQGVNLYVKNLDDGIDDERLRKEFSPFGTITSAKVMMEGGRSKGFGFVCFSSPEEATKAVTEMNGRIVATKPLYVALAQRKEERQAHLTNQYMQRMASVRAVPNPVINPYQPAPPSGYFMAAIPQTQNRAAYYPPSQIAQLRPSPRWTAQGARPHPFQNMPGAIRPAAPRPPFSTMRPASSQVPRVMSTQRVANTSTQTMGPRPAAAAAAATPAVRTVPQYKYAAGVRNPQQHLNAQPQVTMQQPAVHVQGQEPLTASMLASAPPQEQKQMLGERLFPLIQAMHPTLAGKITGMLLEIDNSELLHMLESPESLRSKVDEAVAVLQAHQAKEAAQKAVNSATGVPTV
T1 sequence (P41145 whole entry): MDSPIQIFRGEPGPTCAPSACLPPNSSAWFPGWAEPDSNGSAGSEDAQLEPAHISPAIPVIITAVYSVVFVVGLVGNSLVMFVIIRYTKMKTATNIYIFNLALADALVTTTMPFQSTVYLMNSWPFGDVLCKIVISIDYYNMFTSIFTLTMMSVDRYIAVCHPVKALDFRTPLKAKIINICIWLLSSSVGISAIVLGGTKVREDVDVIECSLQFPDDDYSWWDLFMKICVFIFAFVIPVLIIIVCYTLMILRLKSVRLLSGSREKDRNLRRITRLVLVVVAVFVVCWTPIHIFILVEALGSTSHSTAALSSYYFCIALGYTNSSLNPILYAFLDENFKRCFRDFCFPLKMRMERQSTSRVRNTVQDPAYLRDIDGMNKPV
Chain of G-protein coupled receptor 55 (Q9Y2T6 whole entry): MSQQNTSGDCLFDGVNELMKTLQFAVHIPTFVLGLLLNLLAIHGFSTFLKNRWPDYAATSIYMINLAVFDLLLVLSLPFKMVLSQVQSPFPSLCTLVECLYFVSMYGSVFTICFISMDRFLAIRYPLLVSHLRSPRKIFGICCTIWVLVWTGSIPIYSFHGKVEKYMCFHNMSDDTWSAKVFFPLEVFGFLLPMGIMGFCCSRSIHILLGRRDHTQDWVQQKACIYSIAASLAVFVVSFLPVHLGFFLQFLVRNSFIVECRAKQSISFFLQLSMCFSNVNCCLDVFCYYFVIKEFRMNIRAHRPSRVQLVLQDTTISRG
Chain of Neurotensin receptor type 1 (P30989 whole entry): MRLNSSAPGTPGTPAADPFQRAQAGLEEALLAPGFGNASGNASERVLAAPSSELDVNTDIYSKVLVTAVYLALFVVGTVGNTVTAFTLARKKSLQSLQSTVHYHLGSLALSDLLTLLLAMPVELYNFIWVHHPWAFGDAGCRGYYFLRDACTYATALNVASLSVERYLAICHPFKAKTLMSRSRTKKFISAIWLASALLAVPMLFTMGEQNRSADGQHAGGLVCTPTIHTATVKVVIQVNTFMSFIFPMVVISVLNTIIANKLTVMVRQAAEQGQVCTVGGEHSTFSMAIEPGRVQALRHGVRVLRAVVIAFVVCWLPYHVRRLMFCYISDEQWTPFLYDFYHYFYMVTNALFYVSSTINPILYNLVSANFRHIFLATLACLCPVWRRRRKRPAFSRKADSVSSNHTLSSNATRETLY
Chain of Beta-galactosidase (Q8VNN2 whole entry): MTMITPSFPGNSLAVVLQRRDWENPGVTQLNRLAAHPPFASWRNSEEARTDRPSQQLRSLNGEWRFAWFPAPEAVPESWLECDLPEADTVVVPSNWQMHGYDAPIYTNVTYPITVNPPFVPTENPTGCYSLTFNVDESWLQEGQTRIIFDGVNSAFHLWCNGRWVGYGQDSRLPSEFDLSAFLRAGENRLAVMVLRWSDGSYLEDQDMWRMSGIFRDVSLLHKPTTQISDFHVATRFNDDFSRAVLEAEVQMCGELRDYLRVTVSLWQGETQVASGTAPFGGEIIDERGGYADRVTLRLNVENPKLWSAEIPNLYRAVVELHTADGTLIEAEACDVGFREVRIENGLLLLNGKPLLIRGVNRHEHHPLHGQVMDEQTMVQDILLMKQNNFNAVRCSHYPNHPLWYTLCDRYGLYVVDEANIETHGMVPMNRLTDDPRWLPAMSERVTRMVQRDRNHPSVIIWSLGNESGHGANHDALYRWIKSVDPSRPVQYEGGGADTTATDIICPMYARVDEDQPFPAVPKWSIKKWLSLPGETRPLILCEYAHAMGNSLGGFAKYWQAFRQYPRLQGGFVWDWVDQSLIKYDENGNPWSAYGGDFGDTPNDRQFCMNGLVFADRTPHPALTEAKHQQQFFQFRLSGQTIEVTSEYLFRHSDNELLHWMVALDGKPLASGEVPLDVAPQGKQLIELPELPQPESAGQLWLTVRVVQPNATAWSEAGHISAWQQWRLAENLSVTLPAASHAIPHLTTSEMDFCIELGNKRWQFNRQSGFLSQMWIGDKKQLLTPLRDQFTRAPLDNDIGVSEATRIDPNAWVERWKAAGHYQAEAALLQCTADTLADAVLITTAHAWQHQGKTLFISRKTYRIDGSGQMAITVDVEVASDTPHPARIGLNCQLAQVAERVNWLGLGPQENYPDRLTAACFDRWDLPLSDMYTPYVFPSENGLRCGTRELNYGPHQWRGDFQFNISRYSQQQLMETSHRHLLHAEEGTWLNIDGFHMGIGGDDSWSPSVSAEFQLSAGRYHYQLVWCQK
Chain of Mu-type opioid receptor (P35372 whole entry): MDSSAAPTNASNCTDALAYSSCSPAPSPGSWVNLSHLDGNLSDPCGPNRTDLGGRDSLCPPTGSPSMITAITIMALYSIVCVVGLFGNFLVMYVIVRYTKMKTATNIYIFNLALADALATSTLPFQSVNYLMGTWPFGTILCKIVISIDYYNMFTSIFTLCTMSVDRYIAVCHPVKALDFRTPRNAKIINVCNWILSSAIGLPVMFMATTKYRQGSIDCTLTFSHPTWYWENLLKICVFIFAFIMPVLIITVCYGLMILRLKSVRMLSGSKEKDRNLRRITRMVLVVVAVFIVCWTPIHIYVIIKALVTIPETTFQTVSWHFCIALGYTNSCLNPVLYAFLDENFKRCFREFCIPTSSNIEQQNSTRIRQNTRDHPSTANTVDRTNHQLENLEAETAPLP

`CCc1nnc(NC(=O)c2cccc(C(=O)Nc3nnc(CC)s3)n2)s1`: the AC50 – broadly, the midpoint of the concentration-response curve, whichever way the signal moves – in [1] was 0.573 µM (active); in test [3] it was 5.56 µM (active); in the test on INS1 it was 0.678 µM (active); in test [5], 1.45 µM (active). In addition, the EC50 (commonly the concentration that produces a half-maximal response) on Mu-type opioid receptor is > 32 µM (inactive); with Streptococcus, 3.5 µM (active); in test [7] it was > 32 µM (inactive); in [9] it was 0.829 µM (active); at Beta-galactosidase, > 31.5 µM (inactive). Moreover, the IC50 is 0.568 µM (active) in test [2]; 5 µM (inactive) in test [4]; greater than 32 µM in test [6]; > 32 µM (inactive) in test [8]; 100 µM (active) in test [10]; 0.666 µM (active) in test [11].
`CC(=O)c1ccc2c(c1)C1C(Cl)C(Sc3ccccc3[N+](=O)[O-])CC1C(C(=O)O)N2` (stereo not drawn): the IC50 in test [12] was 57.9 µM (active); in test [13] it was 32 µM (active); in test [14], 13.2 µM (active); in test [15] it was 58.2 µM (active); in test [16], > 66.6 µM (inactive).
For `O=C(CSc1ccc(-c2ccco2)nn1)N1CCCCCC1`, the values for the IC50 in test [17] and in test [18] were > 100 µM (inactive) and 69.4 µM (active), respectively.
Turning to `CCN(CC)c1ccc(C=C2C(=O)NC(=S)NC2=O)cc1`, in the test on Vero [19], the CC50 (usually the concentration at which the toxic effect on the cells reaches its halfway point) was 13.9 µM (active). The EC50 is 15.9 µM (active) in the test with BJ [20]; > 75 µM (inconclusive) with BJ [22]; 3.91 µM (active) in test [23]; 13.5 µM (active) with BJ [24]; 10.8 µM (active) in test [25]. Moreover, the IC50 in the test on Vero [21] is > 25 µM (active).
For the compound `Nc1c(Br)cc2c3c(cccc13)-c1ccccc1-2`, the IC50 on Hexokinase HKDC1 was 4.58 µM (active).
Turning to `COc1ccc([N+](=O)[O-])cc1NC(=O)COC(=O)c1ccc(NC(N)=O)cc1`, the IC50 in test [17] and in test [18] was > 100 µM (inactive) throughout.
In the case of `COc1ccc(-c2n(CC(=O)OC3CC(C)CCC3C(C)C)c3ccccc3[n+]2C)cc1` (stereo not drawn), in [26], the EC50 is > 32 µM (inactive).
